Format in all cases: physicochemical
Data set [1] in a line: Stability of crystal under heating (73° C.) conditions. The conditions noted are these: stored at 73° C. for 2 weeks. Here is the method:
(§1) X-ray diffraction patterns of crystals were taken using Cu-Kα radiation (40 kV, 40 mA, λ=1.541 angstroms) with a powder X-ray diffraction apparatus (X-ray diffraction RINT DMAX-2000, manufactured by Rigaku Industrial Corporation) (scanning speed: 5 degrees/min, scanning range: 5.000 to 40.000 degrees, filter: Kβ filter). Based on powder X-ray diffraction patterns thus obtained, peak positions and relative intensity (%) were determined for peaks with a relative intensity of not less than 20%.
Stability of Crystal Under Heating (73° C.) Conditions
Form I to III crystals of hydrochloride, form I crystal of nitrate, form I and II crystals of sulfate, form I crystal of methanesulfonate, form I and II crystals of p-toluenesulfonate, and form I and II crystals of maleate of N-{2-chloro-4-[(6,7-dimethoxy-4-quinolyl)oxy]phenyl}-N′-(5-methyl-3-isoxazolyl)urea were stored at 73° C. for 2 weeks. […]

The nature of data set [2]: Hygroscopicity of crystal (weight change on storage). The conditions noted are these: 40° C. and 75% RH; for hygroscopicity (level, in words): 2 weeks, based on weight change. Here is the method: Hygroscopicity of Crystal
Form I to III crystals of hydrochloride, form I crystal of nitrate, form I and II crystals of sulfate, form I crystal of methanesulfonate, form I and II crystals of p-toluenesulfonate, and form I and II crystals of maleate of N-{2-chloro-4-[(6,7-dimethoxy-4-quinolyl)oxy]phenyl}-N′-(5-methyl-3-isoxazolyl)urea were stored under conditions of 40° C. and 75% RH for 2 weeks. Before and after the storage, the weight of each crystal was measured to determine a difference in weight between before the storage and after the storage.
For each crystal, the hygroscopicity was evaluated based on the weight change.

Data set [3] is described as follows: Stability of crystal against physical stress (grinding in a mortar). The conditions noted are these: ground in an agate or porcelain mortar. Here is the method: as §1
Stability of Crystal Against Physical Stress
Each of form I to III crystals of hydrochloride, form I crystal of nitrate, form I and II crystals of sulfate, form I crystal of methanesulfonate, form I and II crystals of p-toluenesulfonate, and form I and II crystals of maleate of N-{2-chloro-4-[(6,7-dimethoxy-4-quinolyl)oxy]phenyl}-N′-(5-methyl-3-isoxazolyl)urea was ground in a mortar. In grinding each crystal in the mortar, about 1 mg of each crystal sample was placed and ground in an agate mortar or a porcelain mortar. For each sample before and after grinding, a powder X-ray diffraction chart was measured by method 1 to evaluate the stability of the crystal against physical stress.

Data set [4] in a line: Stability of crystal under high humidity (40° C., 75% RH) conditions. The note with it: stored at 40° C. and 75% RH for 2 weeks. Here is the method: as §1
Stability of Crystal Under High Humidity (40° C., 75% RH) Conditions
Form I to III crystals of hydrochloride, form I crystal of nitrate, form I and II crystals of sulfate, form I crystal of methanesulfonate, form I and II crystals of p-toluenesulfonate, and form I and II crystals of maleate of N-{2-chloro-4-[(6,7-dimethoxy-4-quinolyl)oxy]phenyl}-N′-(5-methyl-3-isoxazolyl)urea were stored under conditions of 40° C. and 75% RH for 2 weeks. […]

[5] abbreviates: listed as form II crystal of hydrochloride, hydrochloride.

Entries after “also recorded” stand apart in the source; their conditions may differ.

For the molecule `COc1cc2nccc(Oc3ccc(NC(=O)Nc4cc(C)on4)c(Cl)c3)c2cc1OC.O=C(O)/C=C\C(=O)O` [Form I crystal of maleate, N-{2-chloro-4-[(6,7-dimethoxy-4-quinolyl)oxy]phenyl}-N′-(5-methyl-3-isoxazolyl)urea maleate], the “stability of crystal under high temperature conditions (change of powder X-ray diffraction chart)” value in data set [1] is “excellent stability”. Besides, in data set [2] (maleate), the “hygroscopicity (level, in words)” value is given as “low level of hygroscopicity; also recorded: on a low level”; the “weight change (hygroscopicity) After 1 week” value is listed as 0.41%; the “weight change (hygroscopicity) After 2 weeks” value was determined as 0.53%; the “weight change (hygroscopicity) After 2 days” value is listed as 0.46%. Moreover, the “stability of crystal against physical stress (powder X-ray diffraction before and after grinding)” value in data set [3] (maleate) is on record as “lowering in peak intensity”. Moreover, the “stability of crystal under high humidity conditions (change of powder X-ray diffraction chart)” value in data set [4] is given as “excellent stability”.

In the case of `COc1cc2nccc(Oc3ccc(NC(=O)Nc4cc(C)on4)c(Cl)c3)c2cc1OC.CS(=O)(=O)O` [Form I crystal of methanesulfonate, N-{2-chloro-4-[(6,7-dimethoxy-4-quinolyl)oxy]phenyl}-N′-(5-methyl-3-isoxazolyl)urea methanesulfonate], in data set [1], the “stability of crystal under high temperature conditions (change of powder X-ray diffraction chart)” value is “excellent stability”. Besides, in data set [2], the “hygroscopicity (level, in words)” value is recorded as “highly hygroscopic”; the “weight change (hygroscopicity) After 1 week” value turned out to be 2.70%; the “weight change (hygroscopicity) After 2 weeks” value stood at 2.84%; the “weight change (hygroscopicity) After 2 days” value is on record as 2.58%. In data set [3], the “stability of crystal against physical stress (powder X-ray diffraction before and after grinding)” value is given as “excellent stability”. Also, in data set [4], the “stability of crystal under high humidity conditions (change of powder X-ray diffraction chart)” value is recorded as “excellent stability”.

Turning to `COc1cc2nccc(Oc3ccc(NC(=O)Nc4cc(C)on4)c(Cl)c3)c2cc1OC.O=[N+]([O-])O` [Form I crystal of nitrate, N-{2-chloro-4-[(6,7-dimethoxy-4-quinolyl)oxy]phenyl}-N′-(5-methyl-3-isoxazolyl)urea nitrate], the “stability of crystal under high temperature conditions (change of powder X-ray diffraction chart)” value in data set [1] is on record as “excellent stability”. Moreover, in data set [2], the “hygroscopicity (level, in words)” value is reported as “highly hygroscopic”; the “weight change (hygroscopicity) After 1 week” value is on record as 2.22%; the “weight change (hygroscopicity) After 2 weeks” value is 2.22%; the “weight change (hygroscopicity) After 2 days” value amounted to 2.04%. The “stability of crystal against physical stress (powder X-ray diffraction before and after grinding)” value in data set [3] was “excellent stability”. Also, in data set [4], the “stability of crystal under high humidity conditions (change of powder X-ray diffraction chart)” value is listed as “excellent stability”.

`COc1cc2nccc(Oc3ccc(NC(=O)Nc4cc(C)on4)c(Cl)c3)c2cc1OC.Cc1ccc(S(=O)(=O)O)cc1` [Form I crystal of p-toluenesulfonate, N-{2-chloro-4-[(6,7-dimethoxy-4-quinolyl)oxy]phenyl}-N′-(5-methyl-3-isoxazolyl)urea p-toluenesulfonate]: the “stability of crystal under high temperature conditions (change of powder X-ray diffraction chart)” value in data set [1] is “excellent stability”. Besides, in data set [2] (p-toluenesulfonate), the “hygroscopicity (level, in words)” value is on record as “low level of hygroscopicity; also recorded: on a low level”; the “weight change (hygroscopicity) After 1 week” value is listed as 0.24%; the “weight change (hygroscopicity) After 2 weeks” value turned out to be 0.25%; the “weight change (hygroscopicity) After 2 days” value is listed as 0.29%. Further, the “stability of crystal against physical stress (powder X-ray diffraction before and after grinding)” value in data set [3] is listed as “excellent stability”. Also, the “stability of crystal under high humidity conditions (change of powder X-ray diffraction chart)” value in data set [4] is recorded as “excellent stability”.

Regarding `COc1cc2nccc(Oc3ccc(NC(=O)Nc4cc(C)on4)c(Cl)c3)c2cc1OC.O=S(=O)(O)O` [Form I crystal of sulfate, N-{2-chloro-4-[(6,7-dimethoxy-4-quinolyl)oxy]phenyl}-N′-(5-methyl-3-isoxazolyl)urea sulfate], in data set [1] (listed as form I crystal of sulfate, sulfate), the “stability of crystal under high temperature conditions (change of powder X-ray diffraction chart)” value was “excellent stability”. In addition, in data set [2], the “hygroscopicity (level, in words)” value is on record as “highly hygroscopic”; the “weight change (hygroscopicity) After 1 week” value is 4.21%; the “weight change (hygroscopicity) After 2 weeks” value stood at 4.25%; the “weight change (hygroscopicity) After 2 days” value turned out to be 4.20%. In data set [3], the “stability of crystal against physical stress (powder X-ray diffraction before and after grinding)” value was “lowering in peak intensity”. The “stability of crystal under high humidity conditions (change of powder X-ray diffraction chart)” value in data set [4] (sulfate) was “converted to a mixture of form I crystal and a novel crystalline form”.

Consider `COc1cc2nccc(Oc3ccc(NC(=O)Nc4cc(C)on4)c(Cl)c3)c2cc1OC.Cl` [Form II crystal of hydrochloride, N-{2-chloro-4-[(6,7-dimethoxy-4-quinolyl)oxy]phenyl}-N′-(5-methyl-3-isoxazolyl)urea hydrochloride], for which the “stability of crystal under high temperature conditions (change of powder X-ray diffraction chart)” value in data set [1] (setting [5]) is “excellent stability”. Also, in data set [2] (hydrochloride), the “hygroscopicity (level, in words)” value is given as “low level of hygroscopicity; also recorded: on a low level”; the “weight change (hygroscopicity) After 1 week” value turned out to be 0.29%; the “weight change (hygroscopicity) After 2 weeks” value is listed as 0.20%; the “weight change (hygroscopicity) After 2 days” value is given as 0.30%. Moreover, the “stability of crystal against physical stress (powder X-ray diffraction before and after grinding)” value in data set [3] (setting [5]) is “excellent stability”. For the same molecule, in data set [4] (setting [5]), the “stability of crystal under high humidity conditions (change of powder X-ray diffraction chart)” value is recorded as “excellent stability”.

For the molecule `COc1cc2nccc(Oc3ccc(NC(=O)Nc4cc(C)on4)c(Cl)c3)c2cc1OC.O=C(O)/C=C\C(=O)O` [Form II crystal of maleate, N-{2-chloro-4-[(6,7-dimethoxy-4-quinolyl)oxy]phenyl}-N′-(5-methyl-3-isoxazolyl)urea maleate], the “stability of crystal under high temperature conditions (change of powder X-ray diffraction chart)” value in data set [1] was “excellent stability”. Also, in data set [2] (maleate), the “hygroscopicity (level, in words)” value is reported as “low level of hygroscopicity; also recorded: on a low level”; the “weight change (hygroscopicity) After 1 week” value is on record as 0.42%; the “weight change (hygroscopicity) After 2 weeks” value came out at 0.57%; the “weight change (hygroscopicity) After 2 days” value worked out at 0.60%. For the same molecule, in data set [3] (maleate), the “stability of crystal against physical stress (powder X-ray diffraction before and after grinding)” value is listed as “excellent stability”. The “stability of crystal under high humidity conditions (change of powder X-ray diffraction chart)” value in data set [4] is “excellent stability”.

`COc1cc2nccc(Oc3ccc(NC(=O)Nc4cc(C)on4)c(Cl)c3)c2cc1OC.Cc1ccc(S(=O)(=O)O)cc1` [Form II crystal of p-toluenesulfonate, N-{2-chloro-4-[(6,7-dimethoxy-4-quinolyl)oxy]phenyl}-N′-(5-methyl-3-isoxazolyl)urea p-toluenesulfonate]: the “stability of crystal under high temperature conditions (change of powder X-ray diffraction chart)” value in data set [1] is “excellent stability”. In data set [2] (p-toluenesulfonate), the “hygroscopicity (level, in words)” value is “low level of hygroscopicity; also recorded: on a low level”; the “weight change (hygroscopicity) After 1 week” value turned out to be 0.70%; the “weight change (hygroscopicity) After 2 weeks” value is on record as 0.80%; the “weight change (hygroscopicity) After 2 days” value was found to be 0.84%. Moreover, the “stability of crystal against physical stress (powder X-ray diffraction before and after grinding)” value in data set [3] is “excellent stability”. The “stability of crystal under high humidity conditions (change of powder X-ray diffraction chart)” value in data set [4] is “excellent stability”.

As for `COc1cc2nccc(Oc3ccc(NC(=O)Nc4cc(C)on4)c(Cl)c3)c2cc1OC.O=S(=O)(O)O` [Form II crystal of sulfate, N-{2-chloro-4-[(6,7-dimethoxy-4-quinolyl)oxy]phenyl}-N′-(5-methyl-3-isoxazolyl)urea sulfate], the “stability of crystal under high temperature conditions (change of powder X-ray diffraction chart)” value in data set [1] (listed as form II crystal of sulfate, sulfate) was “converted to a novel crystalline form”. Moreover, the “stability of crystal under high humidity conditions (change of powder X-ray diffraction chart)” value in data set [4] (listed as from II crystal of sulfate, sulfate) was “converted to a novel crystalline form”.

The values are drawn from patent US20060052415A1, “N-{2-chloro-4-[(6,7-dimethoxy-4-quinolyl)oxy]phenyl}-n'-(5-methyl-3-isoxazolyl)urea salt in crystalline form” (KIRIN BEER KABUSHIKI KAISHA, priority 2002, published 2006).
